“Also recorded” adds a separate entry of the source. One block for each molecule: values may come before it. Positions of bridges follow the written chain, without caps; N, C: chain ends. Non-standard residues stand in square brackets, D forms with d. Residues, ends and D or L forms follow the SMILES beside them. *: point of attachment. 5FAM = O=C1OC2(c3ccc(O)cc3Oc3cc(O)ccc32)c2ccc(C(=O)*)cc21; S5 = C=CCCC[C@](C)(N)C(=O)O
Experiments:
RhoA·GMPPNP = target: T1, RhoA·GMPPNP (Homo sapiens, UniProt P61586, F25N/Q63L); assay: Direct-binding fluorescence polarization, RhoA; details: 20 nM FAM-labelled non-solubilized peptide; n ≥ 2; ± standard error from curve fitting; read-out: Kd RhoA, FP (Table S1)
T1 construct: RhoA (pGEX-2T, 1–186, F25N/Q63L); GST (cleaved yes); made in house
Experimental: (§1) FP experiments were performed on a BMG Labtech Pherastar fluorimeter at 298 K with excitation at 485 nm and emission at 520 nm as described previously ([34]), using 20 nM FAM-labeled peptide. Plates were read after 30 min incubation at room temperature. Data were fitted to a single-site binding model using nonlinear regression analysis in GraphPad prism 8.4 to obtain Kd values and their standard errors.

Cdc42 = target: T2, Cdc42 (Homo sapiens, UniProt P60953, Q61L); assay: Direct-binding fluorescence polarization, Cdc42; details: 20 nM FAM-labelled non-solubilized peptide; n ≥ 2; ± standard error from curve fitting; read-out: Kd Cdc42, FP (Table S1)
T2 construct: Cdc42 (pGEX-2T, 1–184, Q61L); GST (cleaved yes); made in house
Experimental: as §1

[1] = Solubility in aqueous solution (observation); format: physicochemical; details: qualitative
cells = details: confocal microscopy of FAM-labeled peptide; cited from earlier work
Excerpt: It has been shown previously that stapled peptides need to form an amphipathic helix in order to enter cells ([52]), and the amphipathicity of our peptide was disrupted by the inclusion of the so ...

[2] = Circular dichroism, helicity; format: physicochemical; details: CD 185-260 nm, 0.2 mg/ml peptide in water, 298 K; CDSSTR method, reference set 3, Dichroweb
Experimental: CD spectra were recorded at 1 nm intervals between 260 and 185 nm using an Aviv Model 410 CD spectrometer with a 1 mm path length quartz cuvette at 298 K. Three scans were recorded for each peptide or protein, the data were averaged, and the buffer background was subtracted. RLIP76 RBDs were measured at 0.2 mg/ml in 10 mM phosphate buffer, pH 7.3, and 150 mM NaF, while peptides were measured at 0.2 mg/ml in water. The helical content of each peptide and RBD was determined using the CDSSTR method with reference Set 3 and DichroWeb ([59], [60], [61]).

RalA·GTP = target: T3, RalA·GTP (Homo sapiens, UniProt P11233, Q72L); assay: Competition SPA, RalA against immobilized His-tagged wild-type RLIP76 RBD; format: binding
T3 construct: RalA (pMAT10, residues 1–184, Q72L); His6-MBP (cleaved yes); made in house; host or cells: E. coli (inferred from the pMAT10/pGEX vectors)
T3 sequence (P11233 1-184 Q72L): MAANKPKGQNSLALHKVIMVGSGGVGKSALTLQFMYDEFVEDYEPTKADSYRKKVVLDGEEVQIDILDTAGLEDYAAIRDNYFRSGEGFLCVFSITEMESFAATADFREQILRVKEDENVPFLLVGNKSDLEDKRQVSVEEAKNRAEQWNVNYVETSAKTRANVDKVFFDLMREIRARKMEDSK

[3] = test system: V5-RalB Q72L / flag-RLIP76 complex; assay: Coimmunoprecipitation of RalB/RLIP76 in HEK293T cell lysate; format: biochemical; details: V5-RalB Q72L and flag-RLIP76, peptide 1 h at 4 °C, anti-V5 IP, western blot
Experimental: (§2) 3 × 10^6 HEK293T cells were seeded in 10 cm dishes 48 h before the end point, in DMEM supplemented with 10% FBS. […] Dishes were lysed in 1 ml lysis buffer (50 mM Tris-HCl pH 7.8, 150 mM NaCl, 1% Triton, 1 mM EDTA, 1 mM sodium orthovanadate, 1 mM β-glycerophosphate, and protease inhibitor cocktail (Sigma-Aldrich). Lysates (1 ml) were centrifuged at 17,000g for 20 min and added to Protein G Dynabeads (30 μl, Invitrogen) preincubated with anti-V5 antibody (1 μg, R960-25, Invitrogen). Peptides, at the concentrations indicated in the results, were added and incubated with rotation for 1 h at 4 °C. Precipitated complexes were washed with lysis buffer (3 × 500 μl). Samples were resolved by SDS-PAGE and transferred to PVDF membranes (Immobilon-P). Membranes were probed by immunoblotting with the following primary antibodies: anti-V5-HRP (R961-25, Invitrogen), anti-flag-HRP (A8592, Sigma-Aldrich), and anti-Sec5 (EPR9420, Abcam).

[4] = test system: V5-RalB Q72L / endogenous Sec5 complex; assay: Coimmunoprecipitation of RalB/Sec5 in HEK293T cell lysate; format: biochemical; details: peptide 1 h at 4 °C, anti-V5 IP, western blot
Experimental: as §2

[5] = target: RalA (residues 1–184, Q72L) (UniProt P11233); assay: scintillation proximity assay (competition); His-tagged wild-type RLIP76 RBD immobilised on SPA beads, fixed [3H]GTP·RalA (100 nM) or [3H]GTP·RalB (250 nM), competitor RBD or peptide titrated; pure competition model, apparent Kd (Ki)
[6] = target: T4, RalB (residues 1–185, Q72L) (UniProt P11234 1-185, Q72L); assay: as above; details: both partners purified
T4 construct: Loaded with [3H]GTP for SPA, with GMPPNP for ITC, FP and crystallisation; also called RalB·GTP; source: expressed from pMAT10 as His6-MBP fusion, cleaved from its tag as described previously
T4 sequence (looked up): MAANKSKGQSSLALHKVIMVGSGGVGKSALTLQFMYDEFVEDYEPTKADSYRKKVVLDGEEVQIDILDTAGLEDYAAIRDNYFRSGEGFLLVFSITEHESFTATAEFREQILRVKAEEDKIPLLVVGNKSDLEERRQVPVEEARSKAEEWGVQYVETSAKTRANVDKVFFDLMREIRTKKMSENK

T2 sequence (P60953 1-184 Q61L, species assumed): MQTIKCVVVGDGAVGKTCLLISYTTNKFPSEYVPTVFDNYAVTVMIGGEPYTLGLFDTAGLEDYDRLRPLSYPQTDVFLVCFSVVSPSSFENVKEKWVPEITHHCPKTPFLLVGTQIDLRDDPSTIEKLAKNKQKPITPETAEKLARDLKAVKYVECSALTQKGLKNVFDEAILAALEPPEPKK
T1 sequence (P61586 1-186 F25N/Q63L): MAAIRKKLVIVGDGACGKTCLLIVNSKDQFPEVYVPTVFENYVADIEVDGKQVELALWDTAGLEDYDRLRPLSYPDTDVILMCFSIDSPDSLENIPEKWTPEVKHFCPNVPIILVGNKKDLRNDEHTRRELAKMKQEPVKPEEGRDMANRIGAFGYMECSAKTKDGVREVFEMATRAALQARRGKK

Kd (RhoA·GMPPNP): 0.0338 ± 0.0054 µM | Kd (Cdc42): 13 ± 7.4 µM
Molecule: CC[C@H](C)[C@H](NC(=O)[C@H](CCCNC(=N)N)NC(=O)[C@H](CCC(N)=O)NC(=O)[C@@H](NC(=O)[C@H](CCC(=O)O)NC(=O)[C@H](Cc1c[nH]c2ccccc12)NC(=O)[C@H](CC(C)C)NC(=O)[C@]1(C)CCCC=CCCC[C@](C)(NC(=O)[C@H](CC(C)C)NC(=O)c2ccc3c(c2)C(=O)OC32c3ccc(O)cc3Oc3cc(O)ccc32)C(=O)N[C@@H](CCCCN)C(=O)N[C@@H](CCC(=O)O)C(=O)N[C@@H](CCC(=O)O)C(=O)N1)C(C)C)C(=O)N[C@@H](CC(C)C)C(=O)N[C@H](C(=O)N[C@@H](C)C(=O)N[C@@H](CC(C)C)C(=O)N[C@@H](CCCCN)C(=O)N[C@@H](CCCNC(=N)N)C(=O)N[C@@H](CCCCN)C(=O)N[C@@H](CC(C)C)C(=O)N[C@@H](CCCNC(=N)N)C(=O)N[C@@H](CCC(=O)O)C(=O)N[C@@H](C)C(N)=O)[C@@H](C)O [SP1] (5FAM-L[S5]KEE[S5]LWEVQRILTALKRKLREA-NH2; staple 2-6)
solubility [1]: poor solubility; also recorded: poorly soluble | cell entry (previous work) (cells): able to enter cells

Helicity (%) of peptides [2]: 46%
Molecule: CC[C@H](C)[C@H](NC(=O)[C@H](CCCNC(=N)N)NC(=O)[C@H](CCC(N)=O)NC(=O)[C@H](CCC(=O)O)NC(=O)[C@H](CCC(=O)O)NC(=O)[C@H](Cc1c[nH]c2ccccc12)NC(=O)[C@H](CC(C)C)NC(=O)[C@]1(C)CCCC=CCCC[C@](C)(NC(=O)[C@@H](N)CC(C)C)C(=O)N[C@@H](CCCCN)C(=O)N[C@@H](CCC(=O)O)C(=O)N[C@@H](CCC(=O)O)C(=O)N1)C(=O)N[C@@H](CCCCN)C(=O)N[C@H](C(=O)N[C@@H](C)C(=O)N[C@@H](CCC(=O)O)C(=O)N[C@@H](CCCCN)C(=O)N[C@@H](CCCNC(=N)N)C(=O)N[C@@H](CCCCN)C(=O)N[C@@H](CCCCN)C(=O)N[C@@H](CCCNC(=N)N)C(=O)N[C@@H](CCC(=O)O)C(=O)N[C@@H](C)C(N)=O)[C@@H](C)O [wt-sol] (H-L[S5]KEE[S5]LWEEQRIKTAEKRKKREA-NH2; staple 2-6; N-terminus assumed)

Kd (RalA·GTP): > 100 µM | Kd RalA·GTP, Competition SPA (RLIP76) (RalA·GTP; peptides titrated into [3H]-GTP RalA (100 nM) and His-tagged wild-type RLIP76 RBD on SPA beads, apparent Kd (Ki), ± standard error from curve fitting): very weak binding
Molecule: CC[C@H](C)[C@H](NC(=O)[C@H](CCCNC(=N)N)NC(=O)[C@H](CCC(N)=O)NC(=O)[C@H](CCC(=O)O)NC(=O)[C@H](CCC(=O)O)NC(=O)[C@H](C)NC(=O)[C@H](CC(C)C)NC(=O)[C@]1(C)CCCC=CCCC[C@](C)(NC(=O)[C@@H](N)CC(C)C)C(=O)N[C@@H](CCCCN)C(=O)N[C@@H](CCC(=O)O)C(=O)N[C@@H](CCC(=O)O)C(=O)N1)C(=O)N[C@@H](CCCCN)C(=O)N[C@H](C(=O)N[C@@H](C)C(=O)N[C@@H](CCC(=O)O)C(=O)N[C@@H](CCCCN)C(=O)N[C@@H](CCCNC(=N)N)C(=O)N[C@@H](CCCCN)C(=O)N[C@@H](CCCCN)C(=O)N[C@@H](CCCNC(=N)N)C(=O)N[C@@H](CCC(=O)O)C(=O)N[C@@H](C)C(N)=O)[C@@H](C)O [W430A-sol] (H-L[S5]KEE[S5]LAEEQRIKTAEKRKKREA-NH2; staple 2-6; N-terminus assumed)
disruption of RalB–RLIP76 complex in cell lysate [3]: did not inhibit complex formation | disruption of RalB–Sec5 complex in cell lysate [4]: did not inhibit complex formation

Kd [5]: 3.02 µM | Kd [6]: 6.97 µM
B1: RLIP76 RBD WDASQSR mutant (domain or fragment)
chain: ETQAGIKEEIRRQEFLLNSLHRDLQGGIKDLSKWDRAWEVSQILSALRRKLREA
notes: RLIP76 residues 423-446 (helix α2); Selected by CIS display; source: E. coli, recombinant; cleaved from its tag

— publication PMC7949049 (The Journal of Biological Chemistry, 2020)
